Literature values in patent US20110250274A1, “ESTRIOL FORMULATIONS” (priority 2008, published 2011).

Experiments:
[1] = intravaginal route, avoiding enterohepatic circulation
[2] = oral administration
[3] = compared with the other main human estrogens

For C[C@]12CC[C@@H]3c4ccc(O)cc4CC[C@H]3[C@@H]1C[C@@H](O)[C@@H]2O [Estriol, estra-1,3,5(10)-triene-3,16a,17β-triol], the “plasma levels of free estriol” value [1] is listed as 20%, the “share of the administered oral dose rapidly glucuro-conjugated by the liver” value [2] is listed as about 90% and the “share of the oral dose administered that reaches the systemic circulation” value [2] is listed as 1-2%. For the same molecule, the mitogenic activity [3] was “no mitogenic activity”.
